# Results reported in patent US5202348A, “Thiarubrine antifungal agents” (The University of British Columbia, priority 1990, dated 1993).
# Legend:
# [1] = tested on: E. coli; assay: Growth inhibition of E. coli during 24 hours exposure; format: cell-based, Escherichia coli; conditions: Escherichia coli; 24 hours exposure; Table 4; read-out: Minimal concentration causing 50% growth inhibition
# Method: (§1) Doses inhibiting growth in 50% were estimated by plotting concentration o
# (§2) a logarithmic scale and percent of growth inhibition for 24 hours exposur
# (§3) on a probability scale.
# [2] = tested on: Candida albicans, Aspergillus fumigatus and Cryptococcus neoformans; assay: Antifungal activity (general statement); format: cell-based; conditions: extremely low concentrations
# [3] = tested on: C. albicans; assay: Doses of ThD required to inhibit different numbers of C. albicans cells; format: cell-based; conditions: Candida albicans, read-out: LC50 (the source's name)
# [4] = Growth inhibition of 3T3 during 24 hours exposure; format: cell-based, Mouse; conditions: mouse, 3t3 cells; Table 2; read-out: Toxicity Index, LC50 3T3 / LC50 C. albicans
# Method: (§4) 3T3 = Mouse fibroblasts
# as §1, §2, §3
# [5] = tested on: 3T3; assay: Growth inhibition of 3T3 during 24 hours exposure; format: cell-based, Mouse; conditions: Mus musculus, NIH3T3; 24 hours exposure; Table 1; read-out: Concentration causing 50% growth inhibition
# Method: as §4, §1, §2, §3
# [6] = tested on: P815 mastocytoma; assay: LC50 (24 hrs.), doses required to inhibit growth in 50%, different method; format: cell-based; conditions: Mus musculus, P815, 24 h, read-out: LC50 (24 hrs.), dose required to inhibit growth in 50%
# [7] = tested on: E. coli; assay: Growth inhibition of E. coli during 24 hours exposure; format: cell-based, Escherichia coli; conditions: Escherichia coli; 24 hours exposure; Table 3; read-out: Minimal concentration causing 100% growth inhibition
# [8] = tested on: C. albicans; assay: LC50 (24 hrs.), doses required to inhibit growth in 50%, different method; format: cell-based, Candida albicans
# Description: Doses Required to Inhibit Growth of C. albicans
# in 50% During 24 hrs. (ng/ml)
# [9] = tested on: C. albicans; assay: Temperature and time dependent degradation of ThD in water solution (LC50 on C. albicans); format: cell-based; conditions: Candida albicans
# Description: (§5) Data on degradation of Thiarubrine D (ThD) expressed as changes of concentration required to inhibit growth of C. albicans in 50% during 24 hrs. exposure (Lc50 24 hrs.).
# [10] = tested on: bacteria; assay: Anti-bacterial activity (summary); format: cell-based; conditions: Table 14
# [11] = tested on: P. aeruginosa; assay: Growth inhibition of P. aeruginosa during 24 hours exposure; format: cell-based, Pseudomonas aeruginosa; conditions: Pseudomonas aeruginosa; 24 hours exposure; Table 4; read-out: Minimal concentration causing 50% growth inhibition
# Method: as §1, §2, §3
# [12] = tested on: C. albicans; assay: Decomposition of ThD in 95% ethanol in -20° C. (LC50 on C. albicans); format: cell-based; conditions: Candida albicans
# Description: as §5
# [13] = tested on: Candida; assay: Anti-Candida activity (summary); format: cell-based; conditions: Table 14;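 further: Letter grades where Y means active and y means less active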
# [14] = Growth inhibition of WEHI-3 during 24 hours exposure; format: cell-based, Mouse; conditions: mouse, wehi-3 cells; Table 2; read-out: Toxicity Index, LC50 WEHI-3 / LC50 C. albicans
# Method: (§6) WEHl3 = Mouse myelomonocyte
# as §1, §2, §3
# [15] = tested on: WEHI-3; assay: as above; format: cell-based, Mouse; conditions: Mus musculus, WEHI-3; 24 hours exposure; Table 1; read-out: Concentration causing 50% growth inhibition
# Method: as §6, §1, §2, §3
# [16] = tested on: P. aeruginosa; assay: Growth inhibition of P. aeruginosa during 24 hours exposure; format: cell-based, Pseudomonas aeruginosa; conditions: Pseudomonas aeruginosa, Table 3, read-out: Minimal concentration causing 100% growth inhibition
# [17] = Growth inhibition of L1210 during 24 hours exposure; format: cell-based, Mouse; conditions: mouse, l1210 cells; Table 2; read-out: Toxicity Index, LC50 L1210 / C. albicans
# Method: (§7) L1210 = Mouse lymphocytic leukemia
# as §1, §2, §3
# [18] = tested on: L1210; assay: as above; format: cell-based, Mouse; conditions: Mus musculus, L1210; 24 hours exposure; Table 1; read-out: Concentration causing 50% growth inhibition
# Method: as §7, §1, §2, §3
compound,measurement,setting,value
CC#CC1=CC=C(C#CC#CC2CO2)SS1 (stereo not shown) [Thiarubrine D],IC50,[1],0.02 µg/mL
same,Antifungal activity,[2],very high antifungal activity
same,IC50,[3]; cell density 10^4 /ml,0.007 µg/mL
same,IC50,[3]; cell density 10^5 /ml,0.016 µg/mL
same,IC50,[3]; cell density 10^6 /ml,0.042 µg/mL
same,selectivity ratio at 24 h,[4],800
same,IC50,[5],0.48 µg/mL
same,IC50,[6],0.085 µg/mL
same,MIC,[7],0.078 µg/mL
same,Inhibition of growth of Candida albicans,[8],nanogram/ml range
same,IC50,"[8]; Candida albicans, 24 hrs., Table 7, read-out: LC50 (24 hrs.), dose required to inhibit growth in 50%",0.007 µg/mL
same,IC50,"[9]; 0 hrs., 37° C., read-out: LC50 24 Hrs.",0.007 µg/mL
same,IC50,"[9]; 0 hrs., room temperature, read-out: LC50 24 Hrs.",0.007 µg/mL
same,IC50,"[9]; 0.5 hrs., 37° C., read-out: LC50 24 Hrs.",0.02 µg/mL
same,IC50,"[9]; 0.5 hrs., room temperature, read-out: LC50 24 Hrs.",0.016 µg/mL
same,IC50,"[9]; 2 hrs., 37° C., read-out: LC50 24 Hrs.",0.033 µg/mL
same,IC50,"[9]; 2 hrs., room temperature, read-out: LC50 24 Hrs.",0.022 µg/mL
same,IC50,"[9]; 6 hrs., 37° C., read-out: LC50 24 Hrs.",0.085 µg/mL
same,IC50,"[9]; 6 hrs., room temperature, read-out: LC50 24 Hrs.",0.042 µg/mL
same,IC50,"[9]; 24 h, 37° C.",0.21 µg/mL
same,IC50,"[9]; 24 h, room temperature",0.11 µg/mL
same,Anti-bacterial,[10],Y
same,IC50,[11],0.21 µg/mL
same,IC50,"[12]; 0 h, 0 days",0.007 µg/mL
same,IC50,"[12]; 504 h, 21 days",0.017 µg/mL
same,Anti-Candida,[13],Y
same,selectivity ratio at 24 h,[14],83
same,IC50,[15],0.05 µg/mL
same,MIC,[16],0.625 µg/mL
same,selectivity ratio at 24 h,[17],78
same,IC50,[18],0.047 µg/mL
